Here are results for six molecules from patent publication US9096593B2, “Compounds and methods for kinase modulation, and indications therefor” (Plexxikon Inc., priority 2009, dated 2015).

In one assay the target is BCR-KIT/BaF3 cells (Homo sapiens, UniProt P10721). The assay can be described thus: BCR-KIT/BaF3 cell proliferation assay (ATPlite). The class given is cell-based. The settings on record: read-out: BCR/BaF3 (IC50 μM) Kit. Put shortly:
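BCR-KIT/BaF3 cells plated at 10,000/well in G418-containing medium without IL-3/WEHI; MV-4-11 at 25,000/well in medium with 10% FBS. Compound given as 8-point 1:3 titration, top 10 μM final, 3 days at 37 °C. Viability read as ATPlite luminescence; IC50 from concentration curve.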
(ATP-based viability assays read luminescence as a measure of living cells.)

The target of another assay is BCR-FMS/BaF3 cells (Homo sapiens, UniProt P07333). The assay can be described thus: BCR-FMS/BaF3 cell proliferation assay (ATPlite). The assay is classed as cell-based. Summed up:
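BCR-FMS/BaF3 cells at 2×10^5 cells/mL in growth media with 1 mg/mL G418, without WEHI/IL-3, treated with 8-point 1:3 compound titrations (top 10 μM final) for 3 days at 37 °C, 5% CO2. Cell number by ATPlite luminescence; IC50 from signal versus concentration.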

Setting [1] is: BCR-FMS/BaF3 cells; read-out: BCR/BaF3 (IC50 μM) Fms.
[2] abbreviates: Kit IC50/Fms IC50, BCR-KIT/BaF3 vs BCR-FMS/BaF3 cells.
Where [3] appears, read: read-out: BCR/BaF3 (IC50 μM) Fms; BCR-FMS/BaF3 cells.

Each structure is given as a SMILES string. Where two headings read alike, the source gives them in different places.

BCR-FMS/BaF3 cells, sequence (P07333 20-972 limits assumed, change not shown): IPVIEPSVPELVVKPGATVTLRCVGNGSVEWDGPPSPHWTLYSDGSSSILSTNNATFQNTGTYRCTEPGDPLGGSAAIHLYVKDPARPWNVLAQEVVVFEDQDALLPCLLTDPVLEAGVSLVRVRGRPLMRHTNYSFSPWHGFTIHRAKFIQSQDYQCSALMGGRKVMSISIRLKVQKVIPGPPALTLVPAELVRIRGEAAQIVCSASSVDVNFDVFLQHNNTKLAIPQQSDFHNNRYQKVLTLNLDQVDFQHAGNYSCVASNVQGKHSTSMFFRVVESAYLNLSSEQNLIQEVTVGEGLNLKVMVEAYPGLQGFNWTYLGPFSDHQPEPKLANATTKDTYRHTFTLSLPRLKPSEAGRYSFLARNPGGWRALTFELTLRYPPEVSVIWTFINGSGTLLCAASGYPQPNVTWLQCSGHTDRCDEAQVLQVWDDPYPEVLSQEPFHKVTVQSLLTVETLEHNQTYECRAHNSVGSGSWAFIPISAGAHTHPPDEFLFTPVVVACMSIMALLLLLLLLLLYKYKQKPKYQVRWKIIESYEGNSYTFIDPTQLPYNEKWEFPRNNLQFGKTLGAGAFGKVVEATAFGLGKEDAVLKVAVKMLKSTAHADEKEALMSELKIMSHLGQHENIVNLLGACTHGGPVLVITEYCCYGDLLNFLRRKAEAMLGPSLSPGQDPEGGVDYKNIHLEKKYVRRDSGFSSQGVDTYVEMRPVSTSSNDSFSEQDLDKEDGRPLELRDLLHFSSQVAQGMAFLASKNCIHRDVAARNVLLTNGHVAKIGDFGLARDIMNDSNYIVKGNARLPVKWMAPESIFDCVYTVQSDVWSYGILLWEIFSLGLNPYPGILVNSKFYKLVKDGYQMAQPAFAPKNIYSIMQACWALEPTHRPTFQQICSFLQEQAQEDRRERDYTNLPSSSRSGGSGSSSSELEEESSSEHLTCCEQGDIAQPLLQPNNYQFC
BCR-KIT/BaF3 cells, sequence (P10721 26-976 limits assumed, change not shown): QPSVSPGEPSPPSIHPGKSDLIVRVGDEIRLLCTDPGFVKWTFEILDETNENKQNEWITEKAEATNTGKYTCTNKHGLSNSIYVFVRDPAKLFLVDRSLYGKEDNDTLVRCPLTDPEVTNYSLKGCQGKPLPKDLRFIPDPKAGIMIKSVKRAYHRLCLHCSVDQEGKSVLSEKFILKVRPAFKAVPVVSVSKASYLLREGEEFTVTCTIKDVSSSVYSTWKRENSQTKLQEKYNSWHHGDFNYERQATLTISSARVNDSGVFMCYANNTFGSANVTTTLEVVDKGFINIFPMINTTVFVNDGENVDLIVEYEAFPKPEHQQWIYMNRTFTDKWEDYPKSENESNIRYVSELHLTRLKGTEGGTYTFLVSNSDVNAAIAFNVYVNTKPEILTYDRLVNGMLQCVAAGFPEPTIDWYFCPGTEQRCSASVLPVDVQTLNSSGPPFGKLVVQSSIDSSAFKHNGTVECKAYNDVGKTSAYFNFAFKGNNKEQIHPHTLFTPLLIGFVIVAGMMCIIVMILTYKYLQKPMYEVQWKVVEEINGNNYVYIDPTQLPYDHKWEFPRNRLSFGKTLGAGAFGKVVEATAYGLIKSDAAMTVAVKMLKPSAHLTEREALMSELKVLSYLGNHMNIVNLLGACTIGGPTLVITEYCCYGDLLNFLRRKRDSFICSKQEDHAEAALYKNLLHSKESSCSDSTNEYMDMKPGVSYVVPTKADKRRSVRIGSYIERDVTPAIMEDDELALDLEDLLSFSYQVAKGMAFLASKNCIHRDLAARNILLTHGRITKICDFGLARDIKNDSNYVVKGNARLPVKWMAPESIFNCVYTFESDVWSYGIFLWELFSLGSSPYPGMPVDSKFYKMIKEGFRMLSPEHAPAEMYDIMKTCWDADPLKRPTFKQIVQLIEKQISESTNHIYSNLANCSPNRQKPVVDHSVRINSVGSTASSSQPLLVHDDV

In the case of `COc1cccc(CNc2ncc(Cc3c[nH]c4ncc(Cl)cc34)s2)n1` [Compound P-2163, [5-(5-Chloro-1H-pyrrolo[2,3-b]pyridin-3-ylmethyl)-thiazol-2-yl]-(6-methoxy-pyridin-2-ylmethyl)-amine], the IC50 at BCR-KIT/BaF3 cells was > 0.1 µM; at BCR-FMS/BaF3 cells (setting [1]), < 0.1 µM. Moreover, at BCR-FMS/BaF3 cells (setting [2]), the “BCR/BaF3 selectivity (Kit IC50/Fms IC50)” value was <20.

As for `COc1ncc(CNc2ccc(Cc3c[nH]c4ncc(Cl)cc34)c(F)n2)cc1F` [Compound P-2165, [5-(5-Chloro-1H-pyrrolo[2,3-b]pyridin-3-ylmethyl)-6-fluoro-pyridin-2-yl]-(5-fluoro-6-methoxy-pyridin-3-ylmethyl)-amine], the IC50 is > 0.1 µM at BCR-KIT/BaF3 cells; < 0.1 µM at BCR-FMS/BaF3 cells (setting [3]); < 0.1 µM on BCR-FMS/BaF3 cells (read-out: Cell based (IC50 μM) BCR/BaF3 (Fms); BCR-FMS/BaF3 cells, 3 days). In addition, on BCR-FMS/BaF3 cells (setting [2]), the “BCR/BaF3 selectivity (Kit IC50/Fms IC50)” value is on record as >20.

In the case of `Fc1cc(Cc2c[nH]c3ncc(Cl)cc23)cnc1NCc1ccc(C(F)(F)F)nc1` [Compound P-2172, [5-(5-Chloro-1H-pyrrolo[2,3-b]pyridin-3-ylmethyl)-3-fluoro-pyridin-2-yl]-(6-trifluoromethyl-pyridin-3-ylmethyl)-amine], the IC50 on BCR-KIT/BaF3 cells and at BCR-FMS/BaF3 cells (setting [1]) was < 0.1 µM in each case. For the same molecule, on BCR-FMS/BaF3 cells (setting [2]), the “BCR/BaF3 selectivity (Kit IC50/Fms IC50)” value was <20.

Consider `Fc1cncc(CNc2ncc(Cc3c[nH]c4ncc(Cl)cc34)cn2)c1` [Compound P-2176, [5-(5-Chloro-1H-pyrrolo[2,3-b]pyridin-3-ylmethyl)-pyrimidin-2-yl]-(5-fluoro-pyridin-3-ylmethyl)-amine], for which the IC50 was > 0.1 µM at BCR-KIT/BaF3 cells and < 0.1 µM at BCR-FMS/BaF3 cells (setting [3]). Also, the “BCR/BaF3 selectivity (Kit IC50/Fms IC50)” value at BCR-FMS/BaF3 cells (setting [2]) is >20.

In the case of `CCS(=O)(=O)Nc1ccccc1CNc1ccc(Cc2c[nH]c3ncc(C)cc23)c(F)n1` [Compound P-2198, Ethanesulfonic acid (2-{[6-fluoro-5-(5-methyl-1H-pyrrolo[2,3-b]pyridin-3-ylmethyl)-pyridin-2-ylamino]-methyl}-phenyl)-amide], the IC50 at BCR-KIT/BaF3 cells is > 0.1 µM; on BCR-FMS/BaF3 cells (setting [3]) it was < 0.1 µM. The “BCR/BaF3 selectivity (Kit IC50/Fms IC50)” value on BCR-FMS/BaF3 cells (setting [2]) was <20.

For the molecule `CCS(=O)(=O)Nc1cc(F)cc(CNc2ccc(Cc3c[nH]c4ncc(C)cc34)c(F)n2)c1` [Compound P-2202, Ethanesulfonic acid (3-fluoro-5-{[6-fluoro-5-(5-methyl-1H-pyrrolo[2,3-b]pyridin-3-ylmethyl)-pyridin-2-ylamino]-methyl}-phenyl)-amide], the figures for the IC50 at BCR-KIT/BaF3 cells and at BCR-FMS/BaF3 cells (setting [1]) were > 0.1 µM and < 0.1 µM, respectively. At BCR-FMS/BaF3 cells (setting [2]), the “BCR/BaF3 selectivity (Kit IC50/Fms IC50)” value was <20.
